PMC9481636, “Mechanism of action of non-camptothecin inhibitor Genz-644282 in topoisomerase I inhibition” (Communications Biology, 2022)
Residue numbers refer to the chain shown, from its start.

How the values were obtained:
Format in all cases: biochemical
Topoisomerase I (TOP1) [1] = target: T1, Topoisomerase I (TOP1) (Homo sapiens, UniProt P11387, N722A); assay: nicked-DNA accumulation/relaxation assay with purified recombinant TOP1 N722A
T1 construct: 6×His-tagged TOP1 (baculovirus, High Five cells)
T1 sequence (P11387 2-765 N722A): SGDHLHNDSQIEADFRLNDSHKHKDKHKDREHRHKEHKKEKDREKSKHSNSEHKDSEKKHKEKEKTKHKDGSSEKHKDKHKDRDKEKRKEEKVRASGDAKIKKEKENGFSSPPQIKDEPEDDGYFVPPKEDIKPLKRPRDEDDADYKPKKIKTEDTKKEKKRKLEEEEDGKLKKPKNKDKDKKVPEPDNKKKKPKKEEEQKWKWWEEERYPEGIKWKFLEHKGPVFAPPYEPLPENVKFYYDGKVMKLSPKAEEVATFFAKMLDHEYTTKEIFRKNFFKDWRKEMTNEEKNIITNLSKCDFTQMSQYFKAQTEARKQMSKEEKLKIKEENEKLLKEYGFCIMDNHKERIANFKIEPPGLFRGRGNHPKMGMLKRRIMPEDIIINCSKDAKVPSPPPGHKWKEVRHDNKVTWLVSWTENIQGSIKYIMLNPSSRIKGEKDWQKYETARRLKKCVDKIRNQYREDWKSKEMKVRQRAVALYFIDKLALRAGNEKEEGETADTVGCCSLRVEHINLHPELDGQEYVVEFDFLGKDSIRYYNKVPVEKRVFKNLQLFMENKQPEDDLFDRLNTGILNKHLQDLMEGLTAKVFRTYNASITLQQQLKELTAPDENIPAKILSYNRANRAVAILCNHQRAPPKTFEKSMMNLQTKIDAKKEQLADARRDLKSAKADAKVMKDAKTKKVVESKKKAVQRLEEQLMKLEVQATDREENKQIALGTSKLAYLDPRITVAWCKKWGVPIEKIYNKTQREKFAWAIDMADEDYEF

Topoisomerase I (TOP1) [2] = target: T2, Topoisomerase I (TOP1) (Homo sapiens, UniProt P11387); assay: nicked-DNA accumulation/relaxation assay with purified recombinant wild-type TOP1
T2 construct: 6×His-tagged TOP1 (baculovirus, High Five cells)
T2 sequence (P11387 2-765): T1 sequence (P11387 2-765 N722A) with A721N

Topoisomerase I (TOP1) [3] = target: T3, Topoisomerase I (TOP1) (Homo sapiens, UniProt P11387, N722S); assay: nicked-DNA accumulation assay with purified recombinant TOP1 N722S, […] Genz
T3 construct: 6×His-tagged TOP1 (baculovirus, High Five cells)
T3 sequence (P11387 2-765 N722S): T1 sequence (P11387 2-765 N722A) with A721S

Structure (SMILES): CNCCn1c(=O)c2cc(OC)c(OC)cc2c2cnc3cc4c(cc3c21)OCO4 [Genz, 8,9-dimethoxy-5-(2-N-methylaminoethyl)-2,3-methylenedioxy-5H-dibenzo[c,h][1,6]naphthyridin-6-one]
- nicked-DNA accumulation/relaxation assay with purified recombinant TOP1 N722A (Topoisomerase I (TOP1) [1]): accumulation of nicked DNA on N722A and N722S proteins after treatment with Genz was higher than that on the wild type
- nicked-DNA accumulation/relaxation assay with purified recombinant wild-type TOP (Topoisomerase I (TOP1) [2]): slight accumulation of nicked DNA was also observed for the wild type
- nicked-DNA accumulation assay with purified recombinant TOP1 N722S, 10 μM Genz (Topoisomerase I (TOP1) [3]): The enhanced accumulation of nicked DNA appeared only in the N722S mutant after treatment with Genz
